Source: ChEMBL document CHEMBL3853322, “Thrombospondin-1 Mimetic Agonist Peptides Induce Selective Death in Tumor Cells: Design, Synthesis, and Structure-Activity Relationship Studies” (J Med Chem, 2016)
Active and inactive are the calls of the source. No cut-off for these calls is given here. Square brackets hold non-standard residues; d marks the D form. Peptide text beside a SMILES is read from it.

Columns and labels:
[1] = Metabolic stability in human serum at 10 mg/ml at 37 degC after 2 hrs by HPLC analysis; type: ADME
[2] = Induction of programmed cell death in human MEC1 cells at 200 uM after 2 hrs by Annexin-V/propidium iodide staining based FACS analysis; type: functional
[3] = Aqueous solubility of compound in 50 mM sodium succinate buffer at 2 mM at pH 5 by 1D 1H NMR spectroscopic analysis; type: physicochemical; settings: buffer, pH 5, 2000 µM
[4] = Induction of cell death in human LNCAP cells at 300 uM after 2 hrs by Annexin-V/propidium iodide staining based FACS analysis; type: functional
[5] = Induction of cell death in human OVCAR10 cells at 300 uM after 2 hrs by Annexin-V/propidium iodide staining based FACS analysis; type: functional
CLL [6] = assay: Induction of programmed cell death in human CLL cells at 50 to 400 uM after 2 hrs by Annexin-V/propidium iodide staining based FACS analysis; type: functional
[7] = Induction of cell death in human AU565 cells at 300 uM after 2 hrs by Annexin-V/propidium iodide staining based FACS analysis; type: functional
[8] = Induction of cell death in human RPMI8226 cells at 300 uM after 2 hrs by Annexin-V/propidium iodide staining based FACS analysis; type: functional, RPMI-8226
[9] = Aqueous solubility of compound in 50 mM sodium succinate buffer at >1 mM at pH 5 by 1D 1H NMR spectroscopic analysis; type: physicochemical
[10] = Induction of cell death in human HBL100 cells at 300 uM after 2 hrs by Annexin-V/propidium iodide staining based FACS analysis; type: functional, HBL-100
[11] = Cytotoxicity against human B lymphocytes assessed as cell death at 50 to 400 uM after 2 hrs by Annexin-V/propidium iodide staining based FACS analysis; type: toxicity
[12] = Induction of cell death in human MCF7 cells at 300 uM after 2 hrs by Annexin-V/propidium iodide staining based FACS analysis; type: functional
[13] = Induction of cell death in human A549 cells at 300 uM after 2 hrs by Annexin-V/propidium iodide staining based FACS analysis; type: functional
[14] = Induction of cell death in human U937 cells at 300 uM after 2 hrs by Annexin-V/propidium iodide staining based FACS analysis; type: functional, U-937
[15] = Induction of cell death in human Jurkat cells at 300 uM after 2 hrs by Annexin-V/propidium iodide staining based FACS analysis; type: functional
[16] = Induction of cell death in human JM1 cells at 300 uM after 2 hrs by Annexin-V/propidium iodide staining based FACS analysis; type: functional
[17] = Induction of cell death in human Raji cells at 300 uM after 2 hrs by Annexin-V/propidium iodide staining based FACS analysis; type: functional
[18] = Induction of cell death in human MDA-MB-231 cells at 300 uM after 2 hrs by Annexin-V/propidium iodide staining based FACS analysis; type: functional
[19] = Induction of cell death in human Ramos cells at 300 uM after 2 hrs by Annexin-V/propidium iodide staining based FACS analysis; type: functional
CLL [20] = assay: Induction of programmed cell death in human CLL cells harboring TP53 17p deletion mutant at 50 to 400 uM after 2 hrs by Annexin-V/propidium iodide staining based FACS analysis; type: functional
[21] = Drug degradation in human serum up to 5 mins by HPLC analysis; type: ADME
[22] = Induction of cell death in human HeLa cells at 300 uM after 2 hrs by Annexin-V/propidium iodide staining based FACS analysis; type: functional
[23] = Induction of cell death in human MEC1 cells at 300 uM after 2 hrs by Annexin-V/propidium iodide staining based FACS analysis; type: functional
[24] = Induction of cell death in human RPMI8866 cells at 300 uM after 2 hrs by Annexin-V/propidium iodide staining based FACS analysis; type: functional, RPMI-8866
[25] = Induction of cell death in human CEM cells at 300 uM after 2 hrs by Annexin-V/propidium iodide staining based FACS analysis; type: functional, CCRF-CEM
CLL [26] = assay: Induction of programmed cell death in human CLL cells harboring ATM 11q deletion mutant at 50 to 400 uM after 2 hrs by Annexin-V/propidium iodide staining based FACS analysis; type: functional
[27] = Induction of programmed cell death in human A549 cells at 50 uM after 2 hrs by Annexin-V/propidium iodide staining based FACS analysis; type: functional
[28] = Induction of programmed cell death in human MEC1 cells at 50 uM after 2 hrs by Annexin-V/propidium iodide staining based FACS analysis; type: functional
HCT-116 [29] = assay: Induction of programmed cell death in human HCT116 cells after 2 hrs by Annexin-V/propidium iodide staining based FACS analysis; type: functional
A549 [30] = assay: Induction of apoptosis in human A549 cells assessed as early apoptotic cells at 200 uM after 2 hrs by Annexin-V/propidium iodide staining based FACS analysis (reference value: 2%); type: functional
[31] = Induction of programmed cell death in human HCT116 cells at 50 uM after 2 hrs by Annexin-V/propidium iodide staining based FACS analysis; type: functional, HCT-116
MCF7 [32] = assay: Induction of programmed cell death in human MCF7 cells after 2 hrs by Annexin-V/propidium iodide staining based FACS analysis; type: functional
HCT-116 [33] = assay: Induction of apoptosis in human HCT116 cells assessed as early apoptotic cells at 200 uM after 2 hrs by Annexin-V/propidium iodide staining based FACS analysis (reference value: 4%); type: functional
MCF7 [34] = assay: Induction of apoptosis in human MCF7 cells assessed as early apoptotic cells at 200 uM after 2 hrs by Annexin-V/propidium iodide staining based FACS analysis (reference value: 4%); type: functional
HCT-116 [35] = assay: Induction of apoptosis in human HCT116 cells assessed as late apoptotic cells at 200 uM after 2 hrs by Annexin-V/propidium iodide staining based FACS analysis (reference value: 5%); type: functional
[36] = Induction of programmed cell death in human HCT116 cells at 200 uM after 2 hrs by Annexin-V/propidium iodide staining based FACS analysis; type: functional, HCT-116
A549 [37] = assay: Induction of programmed cell death in human A549 cells after 2 hrs by Annexin-V/propidium iodide staining based FACS analysis; type: functional
MCF7 [38] = assay: Induction of apoptosis in human MCF7 cells assessed as late apoptotic cells at 200 uM after 2 hrs by Annexin-V/propidium iodide staining based FACS analysis (reference value: 22%); type: functional
A549 [39] = assay: Induction of apoptosis in human A549 cells assessed as late apoptotic cells at 200 uM after 2 hrs by Annexin-V/propidium iodide staining based FACS analysis (reference value: 5%); type: functional

In the case of `CSCC[C@H](NC(=O)[C@@H](NC(=O)[C@@H](NC(=O)[C@H](Cc1ccc(O)cc1)NC(=O)[C@H](Cc1ccccc1)NC(=O)[C@H](CCCNC(=N)N)NC(C)=O)C(C)C)C(C)C)C(=O)N[C@@H](Cc1c[nH]c2ccccc12)C(=O)N[C@@H](CCCCN)C(N)=O`, the Stability [1] is reported as “Stable”, the Activity [2] is reported as 27% and the solubility [3] is reported as “Insoluble”.

`CSCC[C@H](NC(=O)[C@H](C)NC(=O)[C@@H](NC(=O)[C@H](Cc1ccc(O)cc1)NC(=O)[C@H](Cc1ccccc1)NC(=O)[C@H](CCCNC(=N)N)NC(=O)[C@H](N)CCCCN)C(C)C)C(=O)N[C@@H](Cc1c[nH]c2ccccc12)C(=O)N[C@@H](CCCCN)C(=O)N[C@H](CCCCN)C(=O)O` (H-[dK]RFYVAMWK[dK]-OH) gave an Activity [2] of 30%.

`CSCC[C@H](NC(=O)[C@@H](NC(=O)[C@H](C)NC(=O)[C@H](Cc1ccc(O)cc1)NC(=O)[C@H](Cc1ccccc1)NC(=O)[C@H](CCCNC(=N)N)NC(=O)[C@H](N)CCCCN)C(C)C)C(=O)N[C@@H](Cc1c[nH]c2ccccc12)C(=O)N[C@@H](CCCCN)C(=O)N[C@H](CCCCN)C(=O)O` (H-[dK]RFYAVMWK[dK]-OH) gave an Activity [2] of 12%.

With `CSCC[C@H](NC(=O)[C@@H](NC(=O)[C@@H](NC(=O)[C@H](Cc1ccc(O)cc1)NC(=O)[C@H](Cc1ccccc1)NC(=O)[C@H](C)NC(=O)[C@H](N)CCCCN)C(C)C)C(C)C)C(=O)N[C@@H](Cc1c[nH]c2ccccc12)C(=O)N[C@@H](CCCCN)C(=O)N[C@H](CCCCN)C(=O)O` (H-[dK]AFYVVMWK[dK]-OH) the Activity [2] was 44%.

Work on `CSCC[C@H](NC(=O)[C@@H](NC(=O)[C@@H](NC(=O)[C@H](Cc1ccc(O)cc1)NC(=O)[C@H](Cc1ccccc1)NC(=O)[C@H](CCCNC(=N)N)NC(=O)[C@H](N)CCCCN)C(C)C)C(C)C)C(=O)N[C@@H](Cc1c[nH]c2ccccc12)C(=O)N[C@@H](C)C(=O)N[C@H](CCCCN)C(=O)O` (H-[dK]RFYVVMWA[dK]-OH) yielded an Activity [2] of 46%.

For `CSCC[C@H](NC(=O)[C@@H](NC(=O)[C@@H](NC(=O)[C@H](Cc1ccc(O)cc1)NC(=O)[C@H](Cc1ccccc1)NC(=O)[C@H](CCCNC(=N)N)NC(=O)[C@@H](N)CCCCN)C(C)C)C(C)C)C(=O)N[C@@H](Cc1c[nH]c2ccccc12)C(=O)N[C@@H](CCCCN)C(=O)N[C@@H](CCCCN)C(=O)O`, the Activity [4] was 30%, the Activity [5] was 30% and the Activity (CLL [6]) was “Active”. For the same molecule, the Activity [7] was 30%, the Activity [8] was 30% and the solubility [9] was “Soluble”. For the same molecule, the Activity [10] was 30%, the Activity [11] was “Non-Toxic” and the Activity [12] was 30%. For the same molecule, the Activity [13] was 30%, the Activity [14] was 30% and the Activity [15] was 30%. The Activity [16] was 30%, the Activity [17] was 30% and the Activity [18] was 30%. For the same molecule, the Activity [19] was 30%, the Activity (CLL [20]) was “Active” and the Stability [21] was “Unstable”. For the same molecule, the Activity [22] was 30%, the Activity [2] was 23% and the Activity [23] was 30%. The Activity [24] was 30%, the Activity [25] was 30% and the Activity (CLL [26]) was “Active”.

`CSCC[C@H](NC(=O)[C@@H](NC(=O)[C@@H](NC(=O)[C@H](Cc1ccc(O)cc1)NC(=O)[C@H](C)NC(=O)[C@H](CCCNC(=N)N)NC(=O)[C@H](N)CCCCN)C(C)C)C(C)C)C(=O)N[C@@H](Cc1c[nH]c2ccccc12)C(=O)N[C@@H](CCCCN)C(=O)N[C@H](CCCCN)C(=O)O` (H-[dK]RAYVVMWK[dK]-OH) gave an Activity [2] of 6%.

In the case of `CSCC[C@H](NC(=O)[C@@H](NC(=O)[C@@H](NC(=O)[C@H](Cc1ccc(O)cc1)NC(=O)[C@H](Cc1ccccc1)NC(=O)[C@H](CCCNC(=N)N)NC(=O)[C@H](N)CCCCN)C(C)C)C(C)C)C(=O)N[C@@H](Cc1c[nH]c2ccccc12)C(=O)N[C@@H](CCCCN)C(=O)N[C@H](CCCCN)C(=O)O`, the Activity [27] is reported as 25%, the solubility [9] is reported as “Soluble” and the Activity [28] is reported as 25%. The Activity (HCT-116 [29]) was “Dose-dependent effect”, the Activity (A549 [30]) was 5% and the Activity [31] was 38%. The Activity (MCF7 [32]) was “Dose-dependent effect”, the Activity (HCT-116 [33]) was 4% and the Activity (MCF7 [34]) was 6%. For the same molecule, the Stability [1] was “Stable”, the Activity (HCT-116 [35]) was 77% and the Activity [2] was 63%. For the same molecule, the Activity [36] was 80%, the Activity (A549 [37]) was “Dose-dependent effect” and the Activity (MCF7 [38]) was 52%. It also gave an Activity (A549 [39]) of 60%.
